Data on 3 compounds can be found in patent US7579375B2, “Branched carboxylic acid compound and use thereof” (Ono Pharmaceutical Co., Ltd., priority 2003, dated 2009).

In one data set the test system is S100β. As to the kind of experiment: Intracellular S100β content in secondary cultured astrocytes (ELISA). The format is cell-based, rat. Particulars: astrocytes treated 2 weeks, control group 2177.0±147.74. The source says:
The 1 to 2 day-old neonatal Wistar rats (10 animals) were decapitated and sterilized their heads in ethanol. Ethanol and blood was removed in ice-cold DMEM medium (purchased from Sigma). Meningis was peeled and cortex of cerebrum was removed in ice-cold DMEM medium (purchased from Sigma) under the stereomicroscope. The cortex of cerebrum was minced with frosted glass-slides (purchased from Matsunami) to suspension in ice-cold DMEM medium (purchased from Sigma). Cell suspension was filtrated with 70 micrometer-diameter filter (falcon2350). The filtrate was centrifuged at 100×g for 3 minutes, and the pellet was re-suspended in 10% FCS (fetal calf serum)-containing DMEM medium. The washing procedure using 10% FCS-DMEM medium was repeated 3 times and cells were re-suspended in 10% FCS-DMEM medium. The obtained cell suspension was plated in 75 cm^2 flask (falcon3024) (one flask (containing 12 ml of medium) containing cells obtained from one neonatal rat), and cultured at 37° C. under an atmosphere of 5% CO2, 95% air (0 day of culture). After 2 days of culture (2 days of culture), culture media was aspirated and flask was shaken by hands to remove an unadhesive cells. The flask was washed with DMEM medium and the suspended cells ware removed. This procedure was repeated 3 times till the unadhesive cells were removed completely confirmed by microscope. Then, 10% FCS-DMEM medium was added to flask (12 ml/flask) and cultured at 37° C. under an atmosphere of 5% CO2, 95% air (medium was changed in 12 days after onset of culture).
Primary culture of Astrocytes (19 days after onset of culture, 3 flasks) was purified by the same procedure as used in cell purification in primary culture. Then, the adhesive cells were treated with 0.05% Trypsin-1 mmol/L EDTA at 37° C. till the cells were detached. The cells were suspended in 10% FCS-DMEM medium and transferred to microtube. After centrifugation at 100×g for 3 minutes, the pellet was resuspended in 10% FCS-DMEM medium. A portion of cell suspension was mixed with an equal volume of Trypan-Blue solution. The number of living cells was measured by using the Burker-Turk counting chamber under the phase-contrast microscope. Cells were suspended in 10% FCS-DMEM medium at the cell density of 2×10^5 cells/ml and cultured in 48 well culture plate (6 plates, 0.5 ml/well) at 37° C. under an atmosphere of 5% CO2, 95% air. After 24 hour cultivation, culture medium was changed to the test-compound containing medium (0.5 ml/well), and the cultivation was conducted for 2 weeks at 37° C. under an atmosphere of 5% CO2, 95% air. The change of medium was conducted on 27 days after onset of cultivation. […]

In the next data set the test system is 6 weeks-old male rat. As to the kind of experiment: Long-term repetitive oral dosing, general side effect. The format is in vivo. Particulars: orally once daily, 250 mg/kg per once. The protocol: Each test compounds were dissolved with an aqueous solution of trisodium phosphate, and diluted with a water for injection. The obtained drug solution was orally administrated once daily to 6 weeks-old male rat by long-term repetitive dosing at a dose of 250 mg/kg per once.

For the compound `CCC[C@H](CCCC[C@@H](C)O)C(=O)O` [Example 1(2), (2R,7R)-7-hydroxy-2-propyloctanoic acid], the “intracellular content of S100β” value with S100β (100 micromol/L-treated group) is on record as 1422.5±74.70 ng/mg unit protein.

In the case of `CCC[C@H](CCCCCCO)C(=O)O` [Example 1(4), (2R)-8-hydroxy-2-propyloctanoic acid], the “intracellular content of S100β” value in the data set on S100β (100 micromol/L-treated group) is on record as 1192.8±58.78 ng/mg unit protein. Also, in the data set with 6 weeks-old male rat, the general side effect entry is on record as “does not show a general side effect”.

With `CCC[C@H](CCCCC(C)=O)C(=O)O` [Example 1(1), (2R)-7-oxo-2-propyloctanoic acid], the “intracellular content of S100β” value with S100β (30 micromol/L-treated group (n=4), P<0.001 Dunnett test) came to 1489.0±37.84 ng/mg unit protein; in the data set with S100β (100 micromol/L-treated group), 1053.5±39.57 ng/mg unit protein. In the data set on 6 weeks-old male rat, the general side effect entry is reported as “does not show a general side effect”.
